The test system of experiment [1] is Staphylococcus aureus (Smith). The experiment can be described thus: In vitro tube dilution test (MIC), Staphylococcus aureus (Smith). It is filed as cell-based. The conditions noted are these: 18-20 hours at 37° C. The protocol:
(§1) Nalidixic acid, the parent acid, and its 1,2-ethanediamine (1:1) salt were tested in vitro against ten screening organisms and they were also tested against the standard E. coli (Vogel) systemic infection in mice, the latter in vivo study being carried out using three different routes of administration: oral, subcutaneous and intravenous. The materials and methods used in the comparative antibacterial tests are given in the following paragraphs.
(§2) The parent nalidixic acid was solublized by adding 1.0 ml. of 1 N NaOH to the crystalline acid and water was added to a concentration of 1000 mcg./ml. for the in vitro study or saline to a concentration of 2.5 or 5.0 mg./ml. for the in vivo study. A stock solution of nalidixic acid 1,2-ethanediamine (1:1) salt was prepared from the 1:2 salt according to Example 5 above (refer to Solution 5B); in saline this solution has a concentration equivalent of the nalidixic acid of 47.6 mg./ml. for in vivo studies. A concentration equivalent of the acid of 1000 mcg./ml. for the in vitro studies was obtained by dilution of the stock solution. […]
(§3) The compounds were tested for antimicrobial activity by a single-row tube dilution method. […] Minimal inhibitory concentrations (lowest drug concentrations showing no visible growth, designated MIC) were read after eighteen-twenty hours incubation at 37° C. The molds were read after five days incubation at 25° C.

The test system of experiment [2] is Klebsiella pneumoniae 39645. The experiment can be described thus: In vitro tube dilution test (MIC), Klebsiella pneumoniae 39645. It is filed as cell-based. The following applies: 18-20 hours at 37° C. The protocol: as §1, §2, §3
A further experiment relates to Proteus mirabilis MGH-1. The experiment can be described thus: In vitro tube dilution test (MIC), Proteus mirabilis MGH-1. It is filed as cell-based. The protocol: as §1, §2, §3
Another experiment has as its system Proteus vulgaris 9920. The experiment is described as follows: In vitro tube dilution test (MIC), Proteus vulgaris 9920. Type of experiment: cell-based. The following applies: 18-20 hours at 37° C. The protocol: as §1, §2, §3
The test system of experiment [3] is Pseudomonas aeruginosa MGH-2. The experiment can be described thus: In vitro tube dilution test (MIC), Pseudomonas aeruginosa MGH-2. Type of experiment: cell-based. The conditions noted are these: 18-20 hours at 37° C. The protocol:
as §1, §2, §3

Experiment [4] relates to Streptococcus pyogenes C203. The experiment is described as follows: In vitro tube dilution test (MIC), Streptococcus pyogenes C203. It is filed as cell-based. The following applies: 18-20 hours at 37° C. On the procedure: as §1, §2, §3
The next experiment concerns Candida albicans 10231. The experiment can be described thus: In vitro tube dilution test (MIC), Candida albicans 10231. It is filed as cell-based. The protocol: as §1, §2, §3
For the next experiment, the system named is ten screening organisms. The experiment can be described thus: In vitro antibacterial tests against ten screening organisms (overall). Type of experiment: cell-based. The following applies: in words. The protocol:
as §1, §2, §3

Experiment [5] deals with Escherichia coli (Vogel). The experiment can be described thus: Mouse protection test, systemic Escherichia coli (Vogel) infection in mice. Type of experiment: in vivo, Swiss Webster, female. The conditions noted are these: for ED50 (the dose protecting 50% of the mice) / ED50: dosed 30 minutes after infection, 7 days; for ED50 (the dose protecting 50% of the mice): 10080 min; for ED50: Escherichia coli, 168 h, read-out: ED50 (the dose protecting 50% of the mice). The protocol:
as §1
The parent nalidixic acid was solublized by adding 1.0 ml. of 1 N NaOH to the crystalline acid and water was added to a concentration of 1000 mcg./ml. for the in vitro study or saline to a concentration of 2.5 or 5.0 mg./ml. for the in vivo study. A stock solution of nalidixic acid 1,2-ethanediamine (1:1) salt was prepared from the 1:2 salt according to Example 5 above (refer to Solution 5B); in saline this solution has a concentration equivalent of the nalidixic acid of 47.6 mg./ml. for in vivo studies. A concentration equivalent of the acid of 1000 mcg./ml. for the in vitro studies was obtained by dilution of the stock solution.
Culture for In Vivo Study Escherichia coii (Vogel)
Mice White, Swiss Webster, female, […].
The E. coli culture was grown in Brain Heart Infusion broth at 37° C. for sixteen hours after which 0.1 ml. was removed and inoculated into 10 ml. of Brain Heart Infusion broth and incubated for five hours. […] All mice to be infected were inoculated intraperitoneally with 0.5 ml. of the inoculum.
After inoculation of the organism, the mice were divided into groups of ten. Medication was given to one group of mice at each dose level of each of the […] drugs by each of the three routes of administration. Two groups (twenty mice) were used as infection controls. The drugs were administered thirty minutes after the mice were infected. The dose of drug for i.v. injection was contained in 0.2 ml. Those for oral or subcutaneous administration were contained in 0.5 ml. The mice were examined and deaths were recorded for seven days after inoculation. The ED50 's (the dose protecting 50% of the mice) were calculated using a modified Reed and Muench method.

Experiment [6] relates to Escherichia coli (Vogel). The experiment can be described thus: In vitro tube dilution test (MIC), Escherichia coli (Vogel). Type of experiment: cell-based. The conditions noted are these: 18-20 hours at 37° C., read-out: Minimal Inhibitory Concentration. On the procedure: as §1, §2, §3
For the next experiment, the system named is Aspergillus niger 16404. The experiment is described as follows: In vitro tube dilution test (MIC), Aspergillus niger 16404. Type of experiment: cell-based. The following applies: 120 h, molds read after five days at 25° C., read-out: Minimal Inhibitory Concentration. The protocol: as §1, §2, §3
The subject of experiment [7] is Trichophyton mentagrophytes 9129. The experiment is described as follows: In vitro tube dilution test (MIC), Trichophyton mentagrophytes 9129. The conditions noted are these: 120 h, molds read after five days at 25° C., read-out: Minimal Inhibitory Concentration. It is filed as cell-based. On the procedure:
as §1, §2, §3

Setting [8] is: read-out: Minimal Inhibitory Concentration.

Converted amounts (≈) assume the structure as drawn. Where a name gives a salt, the structure may show the parent alone. Read-outs that look alike come from different tables or passages of the source.

The text below walks through data of patent US4207418A, “1,2-Ethanediamine salts of nalidixic acid” (Sterling Drug Inc., priority 1978, dated 1980).

Turning to `CCn1cc(C(=O)O)c(=O)c2ccc(C)nc21` [1,2-ED Salt, 1,2-ethanediamine (1:1) salt of nalidixic acid], the “Minimal Inhibitory Concentration” value came to 31.3 µg/mL in [1]; 31.3 µg/mL in [2]; 15.6 µg/mL in the experiment on Proteus mirabilis MGH-1 (18-20 hours at 37° C.); 1.0 µg/mL in the experiment on Proteus vulgaris 9920; 62.5 µg/mL in experiment [3] (Pseudomonas aeruginosa MGH-2); 250 µg/mL in [4]. Further, the “Minimal Inhibitory Concentration” value in the experiment on Candida albicans 10231 turned out to be 500 µg/mL. Further, the “antibacterial activity in standard in vitro tests vs. parent nalidixic acid” value in the experiment with ten screening organisms was “as active antibacterially as the corresponding parent nalidixic acid”. Also, in the experiment on ten screening organisms (nine of the ten microorganisms), the “in vitro MIC's compared with MIC's of nalidixic acid” value is recorded as “identical to the MIC's of nalidixic acid against nine of the ten microorganisms examined”. Also, the “ED50 (the dose protecting 50% of the mice)” value was 18.9 mg./kg./dose in the experiment on Escherichia coli (Vogel) [5] (Oral) and 17.6 mg./kg./dose with Escherichia coli (Vogel) [5] (Subcutaneous). Besides, in the experiment on Escherichia coli (Vogel) [5] (in words), the “ED50 's compared with nalidixic acid in the mouse protection test” value is given as “no significant differences”. For the same compound, the “antibacterial activity against in vivo bacterial infections in mice vs. parent nalidixic acid” value with Escherichia coli (Vogel) [5] (in words) was “as active antibacterially as the corresponding parent nalidixic acid”.

One may read the ED50 as the dose that gives a 50% effect, or the effect in half of the subjects. Consider `CCn1cc(C(=O)O)c(=O)c2ccc(C)nc21` [nalidixic acid, 1-ethyl-1,4-dihydro-7-methyl-4-oxo-1,8-naphthyridine-3-carboxylic acid], for which the MIC in [1] (setting [8]) came out at 31.3 µg/mL (≈ 135 µM); in the experiment on Escherichia coli (Vogel) [6] it was 3.9 µg/mL (≈ 16.8 µM); in experiment [2] (setting [8]) it was 31.3 µg/mL (≈ 135 µM); in the experiment on Proteus mirabilis MGH-1 (MGH1, 18-20 hours at 37° C., read-out: Minimal Inhibitory Concentration) it was 15.6 µg/mL (≈ 67.2 µM); in the experiment on Proteus vulgaris 9920 (setting [8]) it was 1 µg/mL (≈ 4.31 µM); in [3] (Pseudomonas aeruginosa, MGH2, Pseudomonas aeruginosa MGH-2, read-out: Minimal Inhibitory Concentration) it was 125 µg/mL (≈ 538 µM). In addition, the MIC in [4] (setting [8]) came to 250 µg/mL (≈ 1080 µM); in the experiment on Candida albicans 10231 (setting [8]), 500 µg/mL (≈ 2150 µM); in the experiment with Aspergillus niger 16404, 500 µg/mL (≈ 2150 µM); in [7] it was 500 µg/mL (≈ 2150 µM). Moreover, the ED50 was 17.6 mg/kg with Escherichia coli (Vogel) [5] (iv, Intravenous); 16.5 mg/kg in the experiment on Escherichia coli (Vogel) [5] (po, Oral); 14 mg/kg in the experiment with Escherichia coli (Vogel) [5] (sc, Subcutaneous).
